These results are taken from patent US5464826A, “Method of treating tumors in mammals with 2',2'-difluoronucleosides” (Eli Lilly and Company, priority 1994, dated 1995).

One data set relates to 6C3HED lymphosarcoma. Description: 6C3HED lymphosarcoma tumor model. Format: in vivo, mice (C3H). Conditions: IP. The source says:
6C3HED--The 6C3HED lymphosarcoma was obtained in 1979 from the Division of Cancer Treatment, N.C.I., tumor bank maintained at E.G. and G. Mason Research (Worchester, Mass.). First passage tumor was stored in liquid nitrogen using standard techniques. The transplanted tumor was re-established from the tumor bank every six months or as needed. The tumor is maintained by serial passage twice weekly in C3H mice (Charles River; Wilmington, Mass.).
(§1) The tumor was removed from passage animals and minced into 1 to 3 mm square fragments using sterile techniques. Tumor pieces were checked for sterility using both Antibiotic Medium 1 and Brain Heart Infusion (Difco; Detroit, Mich.). Recipient mice were shaved and tumor pieces were implanted subcutaneously in the axillary region by trocar. Drug therapy on the appropriate schedule was initiated on the day after tumor implant. The compound was dissolved in saline for all experiments. All animals were weighed at the beginning and end of drug treatment. Food and water were provided ad libitum. On days 10 to 12, two dimensional measurements (width and length) of all tumors were taken using vernier calipers. Tumor weights were calculated from these measurements using the following formula:
Tumor Weight (mg)=Tumor Length (mm)×Tumor Width (mm)^2 /2
For all data, the tumor weight was rounded to the nearest tenth of a gram for analysis. No group is included in the analysis for therapeutic activity in which deaths attributable to drug toxicity exceeded 30 percent of the treated group.
In Table 3 which follows, column 1 gives the example number of the compound tested; column 2 provides the tumor system; column 3, the dose level; column 4, the route administered; column 5, the dosage schedule; column 6, the percent inhibition of the tumor; and column 7, the toxic deaths observed prior to completion of the study.

Data set [1] relates to 6C3HED, CA755, P1534J, X5563. Briefly: additional tumor test systems (summary statement). It is filed as in vivo, mice. Conditions: systems include 6C3HED.
From the text: These systems include the 6C3HED lymphosarcoma, also known as the Gardner lymphosarcoma (6C3HED); the CA-755 adenocarcinoma (CA755); the P1534J lymphatic leukemia (P1534J); and the X5563 plasma cell myeloma (X5563). Each of these systems is described in detail below.
as §1, with “formula: […]” for “formula:”

Regarding `Nc1ccn(C2O[C@H](CO)[C@@H](O)C2(F)F)c(=O)n1` (stereo partly shown) [Example 1, 1-(4-Amino-2-oxo-1H-pyrimidin-1-yl)-2-desoxy-2,2-difluororibose], the “Percent Inhibition of Tumor” value is recorded as 0% in the data set on 6C3HED lymphosarcoma (0.05 mg/kg, Daily for 8 Days); 0% in the data set on 6C3HED lymphosarcoma (0.1 mg/kg, Daily for 8 Days); 0% with 6C3HED lymphosarcoma (0.2 mg/kg, Daily for 8 Days); 8% in the data set on 6C3HED lymphosarcoma (0.4 mg/kg, Daily for 8 Days); 0% with 6C3HED lymphosarcoma (1.25 mg/kg, Days 1,5,9); 1% in the data set with 6C3HED lymphosarcoma (2.5 mg/kg, Days 1,5,9). The “Percent Inhibition of Tumor” value with 6C3HED lymphosarcoma (5.0 mg/kg, Days 1,5,9) was found to be 49%; in the data set with 6C3HED lymphosarcoma (10.0 mg/kg, Days 1,5,9), 88%; in the data set on 6C3HED lymphosarcoma (20.0 mg/kg, Days 1,5,9), 95%. For the same compound, the “Toxic Deaths” value is given as 0/10 in the data set with 6C3HED lymphosarcoma (0.05 mg/kg, Daily for 8 Days); 0/10 in the data set with 6C3HED lymphosarcoma (0.1 mg/kg, Daily for 8 Days); 0/10 in the data set on 6C3HED lymphosarcoma (0.2 mg/kg, Daily for 8 Days); 0/10 with 6C3HED lymphosarcoma (0.4 mg/kg, Daily for 8 Days); 0/7 with 6C3HED lymphosarcoma (1.25 mg/kg, Days 1,5,9); 0/7 in the data set with 6C3HED lymphosarcoma (2.5 mg/kg, Days 1,5,9). Moreover, the “Toxic Deaths” value in the data set on 6C3HED lymphosarcoma (5.0 mg/kg, Days 1,5,9) was 0/7; with 6C3HED lymphosarcoma (10.0 mg/kg, Days 1,5,9) it was 0/7; in the data set with 6C3HED lymphosarcoma (20.0 mg/kg, Days 1,5,9), 0/7. Moreover, in data set [1], the “activity in additional tumor test systems (in words)” value is given as “demonstrated activity in additional tumor test systems”.
